{
  "source": "paper PMC8523698",
  "about": "“Preclinical characterization of an intravenous coronavirus 3CL protease inhibitor for the potential treatment of COVID19” (Nature Communications, 2021)",
  "test_system": "MRC-5 cells",
  "assay": "Cytotoxicity in MRC-5 cells",
  "conditions": "for % Effect: CC50 run 30-Apr-2020",
  "note": "Several values for one entry are separate records, joined by “and”; a condition that tells them apart may be missing. Equal entries are not always repeated.",
  "data": [
    {"molecule": "COc1cccc2[nH]c(C(=O)N[C@@H](CC(C)C)C(=O)N[C@@H](C[C@@H]3CCNC3=O)C(=O)CO)cc12", "note": "[PF-00835231-00]", "values": [
      {"measurement": "% Well Effect", "setting": "0.0316422 uM, minus efflux inhibitor, CC50 run 24-Apr-2020", "value": "5.91% and -1.40%"},
      {"measurement": "% Well Effect", "setting": "0.100053 uM, minus efflux inhibitor, CC50 run 24-Apr-2020", "value": "0.31% and -2.42%"},
      {"measurement": "% Well Effect", "setting": "0.316367 uM, minus efflux inhibitor, CC50 run 24-Apr-2020", "value": "0.82% and -3.88%"},
      {"measurement": "% Well Effect", "setting": "3.16311 uM, minus efflux inhibitor, CC50 run 24-Apr-2020", "value": "2.27% and -2.51%"},
      {"measurement": "% Well Effect", "setting": "3.16311 uM, plus 0.5 uM efflux inhibitor, CC50 run 22-may-2020", "value": 2.26, "unit": "%"},
      {"measurement": "% Well Effect", "setting": "3.16311 uM, plus 0.5 uM efflux inhibitor, CC50 run 24-Apr-2020", "value": -4.43, "unit": "%"},
      {"measurement": "% Well Effect", "setting": "10.0018 uM, minus efflux inhibitor, CC50 run 24-Apr-2020", "value": "4.47% and -3.27%"},
      {"measurement": "% Well Effect", "setting": "10.0018 uM, plus 0.5 uM efflux inhibitor, CC50 run 22-may-2020", "value": 2.88, "unit": "%"},
      {"measurement": "% Well Effect", "setting": "10.0018 uM, plus 0.5 uM efflux inhibitor, CC50 run 24-Apr-2020", "value": -5.99, "unit": "%"},
      {"measurement": "% Well Effect", "setting": "31.6256 uM, minus efflux inhibitor, CC50 run 24-Apr-2020", "value": "0.83% and -8.49%"},
      {"measurement": "% Well Effect", "setting": "31.6256 uM, plus 0.5 uM efflux inhibitor, CC50 run 22-may-2020", "value": 5.31, "unit": "%"},
      {"measurement": "% Well Effect", "setting": "31.6256 uM, plus 0.5 uM efflux inhibitor, CC50 run 24-Apr-2020", "value": -3.70, "unit": "%"},
      {"measurement": "% Well Effect", "setting": "100 uM, minus efflux inhibitor, CC50 run 24-Apr-2020", "value": "-3.72% and -12.98%"},
      {"measurement": "% Well Effect", "setting": "100 uM, plus 0.5 uM efflux inhibitor, CC50 run 22-may-2020", "value": -0.43, "unit": "%"},
      {"measurement": "% Well Effect", "setting": "100 uM, plus 0.5 uM efflux inhibitor, CC50 run 24-Apr-2020", "value": -3.29, "unit": "%"},
      {"measurement": "% Well Effect", "setting": "CC50 data, MRC-5 cells, run 22-may-2020, plate GCNS00043792A, [Assay] 0.031642 uM", "value": "-3.27% and -2.12%"},
      {"measurement": "% Well Effect", "setting": "CC50 data, MRC-5 cells, run 22-may-2020, plate GCNS00043792A, [Assay] 0.100053 uM", "value": "-1.81% and 2.13%"},
      {"measurement": "% Well Effect", "setting": "CC50 data, MRC-5 cells, run 22-may-2020, plate GCNS00043792A, [Assay] 0.316367 uM", "value": "-2.43% and 2.23%"},
      {"measurement": "% Well Effect", "setting": "CC50 data, MRC-5 cells, run 22-may-2020, plate GCNS00043792A, [Assay] 1.00035 uM", "value": "1.33% and 1.48%"},
      {"measurement": "% Well Effect", "setting": "CC50 data, MRC-5 cells, run 22-may-2020, plate GCNS00043792A, [Assay] 3.16311 uM", "value": -3.27, "unit": "%"},
      {"measurement": "% Well Effect", "setting": "CC50 data, MRC-5 cells, run 22-may-2020, plate GCNS00043792A, [Assay] 10.0018 uM", "value": -1.55, "unit": "%"},
      {"measurement": "% Well Effect", "setting": "CC50 data, MRC-5 cells, run 22-may-2020, plate GCNS00043792A, [Assay] 31.6256 uM", "value": 0.64, "unit": "%"},
      {"measurement": "% Well Effect", "setting": "CC50 data, MRC-5 cells, run 22-may-2020, plate GCNS00043792A, [Assay] 100 uM", "value": -1.12, "unit": "%"},
      {"measurement": "% Well Effect", "setting": "CC50 data, MRC-5 cells, run 24-Apr-2020, plate GCNS00043676A, [Assay] 0.0316422 uM", "value": "-8.00% and -3.89%"},
      {"measurement": "% Well Effect", "setting": "CC50 data, MRC-5 cells, run 24-Apr-2020, plate GCNS00043676A, [Assay] 0.100053 uM", "value": "-11.58% and -9.10%"},
      {"measurement": "% Well Effect", "setting": "CC50 data, MRC-5 cells, run 24-Apr-2020, plate GCNS00043676A, [Assay] 0.316367 uM", "value": "-6.82% and -8.60%"},
      {"measurement": "% Well Effect", "setting": "CC50 data, MRC-5 cells, run 24-Apr-2020, plate GCNS00043676A, [Assay] 1.00035 uM", "value": "-10.61% and -9.50%"},
      {"measurement": "% Well Effect", "setting": "CC50 data, MRC-5 cells, run 24-Apr-2020, plate GCNS00043676A, [Assay] 3.16311 uM", "value": -5.78, "unit": "%"},
      {"measurement": "% Well Effect", "setting": "CC50 data, MRC-5 cells, run 24-Apr-2020, plate GCNS00043676A, [Assay] 10.0018 uM", "value": -3.01, "unit": "%"},
      {"measurement": "% Well Effect", "setting": "CC50 data, MRC-5 cells, run 24-Apr-2020, plate GCNS00043676A, [Assay] 31.6256 uM", "value": -3.17, "unit": "%"},
      {"measurement": "% Well Effect", "setting": "CC50 data, MRC-5 cells, run 24-Apr-2020, plate GCNS00043676A, [Assay] 100 uM", "value": 0.84, "unit": "%"},
      {"measurement": "% Effect", "setting": "Concentration 0.78125, minus efflux inhibitor", "value": "-1.26% and -6.59%"},
      {"measurement": "% Effect", "setting": "Concentration 1.5625, minus efflux inhibitor", "value": "-9.86% and -8.48%"},
      {"measurement": "% Effect", "setting": "Concentration 3.125, minus efflux inhibitor", "value": "-3.51% and -6.64%"},
      {"measurement": "% Effect", "setting": "Concentration 6.25, minus efflux inhibitor", "value": "-4.42% and -7.91%"},
      {"measurement": "% Effect", "setting": "Concentration 12.5, minus efflux inhibitor", "value": "-6.72% and -7.11%"},
      {"measurement": "% Effect", "setting": "Concentration 25, minus efflux inhibitor", "value": "-6.44% and -6.96%"},
      {"measurement": "% Effect", "setting": "Concentration 50, minus efflux inhibitor", "value": "-10.88% and -4.85%"},
      {"measurement": "% Effect", "setting": "Concentration 100, minus efflux inhibitor", "value": "-4.27% and -7.38%"}
    ]}
  ]
}
